In publication PMC3834327, “N ^6-Substituted AMPs Inhibit Mammalian Deoxynucleotide N-Hydrolase DNPH1” (PLoS ONE, 2013):
Values belong to the compound of their own block, whether it stands above or below them.

Assays:
human DNPH1 [1] = target: T1, human DNPH1 (Homo sapiens, UniProt O43598); test: Kinetic measurements: inhibition of human DNPH1 activity (dGMP substrate, guanine by RR-HPLC)
T1 sequence (O43598 1-174): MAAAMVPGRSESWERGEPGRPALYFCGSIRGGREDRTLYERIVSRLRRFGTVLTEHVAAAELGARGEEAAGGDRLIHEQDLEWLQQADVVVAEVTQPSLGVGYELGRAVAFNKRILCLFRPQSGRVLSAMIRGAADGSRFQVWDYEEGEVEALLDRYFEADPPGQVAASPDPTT

rat DNPH1 [2] = target: T2, rat DNPH1 (Rattus norvegicus, UniProt O35820); test: Isothermal titration calorimetry with rat DNPH1; conditions: for -T∆S / ∆G / ∆H / ∆S: ITC, T = 298 K, pH 6.0, rat DNPH1
T2 sequence (O35820 1-163): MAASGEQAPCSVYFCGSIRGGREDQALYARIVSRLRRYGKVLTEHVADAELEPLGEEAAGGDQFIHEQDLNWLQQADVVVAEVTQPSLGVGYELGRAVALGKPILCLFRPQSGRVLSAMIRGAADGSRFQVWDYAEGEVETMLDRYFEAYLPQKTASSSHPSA

rat DNPH1 [3] = target: T2, rat DNPH1; test: Kinetic measurements: inhibition of rat DNPH1 activity (dGMP substrate, spectrophotometric)
human DNPH1 [4] = target: T1, human DNPH1; test: Isothermal titration calorimetry with human DNPH1; conditions: for -T∆S / ∆G / ∆H / ∆S: ITC, T = 298 K, pH 6.0, human DNPH1
human DNPH1 [5] = target: T1, human DNPH1; test: Kinetic parameters of human DNPH1 with 2'-deoxynucleoside 5'-monophosphates as substrates; assay type: biochemical; design: made in house; host or cells: E. coli Bli5; conditions: substrate of human DNPH1; for Km: double reciprocal plots, five concentrations
rat DNPH1 [6] = target: T2, rat DNPH1; design: made in house; host or cells: E. coli Bli5; method as in PMID 20962348; conditions: cited from earlier work

kcat (human DNPH1 [5]): 2.5 ± 0.8 10^-3 s^-1
Km (human DNPH1 [5]): 97 ± 14 µM
SMILES: Nc1ncnc2c1ncn2[C@H]1C[C@H](O)[C@@H](COP(=O)(O)O)O1 [dAMP]

Ki (human DNPH1 [1]): 2100 ± 200 nM
Kd (rat DNPH1 [2]): 9400 ± 100 nM
-T∆S (rat DNPH1 [2]): 5.5 kcal/mol
∆G (rat DNPH1 [2]): -6.9 kcal/mol
∆H (rat DNPH1 [2]): -12.4 ± 0.1 kcal/mol
∆S (rat DNPH1 [2]): -18.5 cal.K^1.mol^-1
Ki (rat DNPH1 [3]): 11200 nM
Kd (human DNPH1 [4]): 5500 ± 100 nM
-T∆S (human DNPH1 [4]): 2.6 kcal/mol
∆G (human DNPH1 [4]): -7.2 kcal/mol
∆H (human DNPH1 [4]): -9.8 ± 0.1 kcal/mol
∆S (human DNPH1 [4]): -8.8 cal.K^-1.mol^-1
SMILES: O=C(O)CCCNc1ncnc2c1ncn2[C@@H]1O[C@H](COP(=O)(O)O)[C@@H](O)[C@H]1O [Compound 14, N ^6-(3-carboxypropyl)adenosine 5'-monophosphate]

Ki (human DNPH1 [1]): 5600 ± 500 nM
Ki (rat DNPH1 [3]): 6200 ± 700 nM
SMILES: O=C(O)CCNc1ncnc2c1ncn2[C@@H]1O[C@H](COP(=O)(O)O)[C@@H](O)[C@H]1O [Compound 13, N ^6-(2-carboxyethyl)adenosine 5'-monophosphate]

kcat (human DNPH1 [5]): 200 ± 20 10^-3 s^-1
Km (human DNPH1 [5]): 7800 ± 1760 µM
SMILES: O=c1ccn([C@H]2C[C@H](O)[C@@H](COP(=O)(O)O)O2)c(=O)[nH]1 [dUMP]

kcat (human DNPH1 [5]): 0.002 s⁻¹
SMILES: Nc1nc2c(ncn2[C@H]2C[C@H](O)[C@@H](COP(=O)(O)O)O2)c(=O)[nH]1 [dGMP, 2’-Deoxyguanosine 5’-monophosphate]

kcat (human DNPH1 [5]): 25 ± 2 10^-3 s^-1
Km (human DNPH1 [5]): 23000 ± 3050 µM
SMILES: Cc1cn([C@H]2C[C@H](O)[C@@H](COP(=O)(O)O)O2)c(=O)[nH]c1=O [dTMP]

Ki (human DNPH1 [1]): 7800 ± 1000 nM
Ki (rat DNPH1 [3]): 2900 ± 300 nM
SMILES: O=P(O)(O)OC[C@H]1O[C@@H](n2cnc3c(NCCc4ccccc4)ncnc32)[C@H](O)[C@@H]1O [Compound 12, N ^6-Phenylethyladenosine 5'-monophosphate]

kcat (human DNPH1 [5]): 1.6 ± 0.1 10^-3 s^-1
Km (human DNPH1 [5]): 104 ± 19 µM
SMILES: O=c1[nH]cnc2c1ncn2[C@H]1C[C@H](O)[C@@H](COP(=O)(O)O)O1 [dIMP]

kcat (human DNPH1 [5]): 8.3 ± 0.4 10^-3 s^-1
Km (human DNPH1 [5]): 2500 ± 207 µM
SMILES: Nc1ccn([C@H]2C[C@H](O)[C@@H](COP(=O)(O)O)O2)c(=O)n1 [dCMP]

Continued, compound first:

SMILES: O=P(O)(O)OC[C@H]1O[C@@H](n2cnc3c(NCc4ccco4)ncnc32)[C@H](O)[C@@H]1O [Compound 5, kinetin riboside 5’-monophosphate]
Ki (human DNPH1 [1]): 2200 ± 200 nM
Kd (rat DNPH1 [2]): 800 ± 100 nM
-T∆S (rat DNPH1 [2]): 17.4 kcal/mol
∆G (rat DNPH1 [2]): -8.3 kcal/mol
∆H (rat DNPH1 [2]): -25.7 ± 0.1 kcal/mol
∆S (rat DNPH1 [2]): -58.3 cal.K^1.mol^-1
Ki (rat DNPH1 [3]): 1800 ± 700 nM
Kd (human DNPH1 [4]): 1400 ± 100 nM
-T∆S (human DNPH1 [4]): 12.6 kcal/mol
∆G (human DNPH1 [4]): -7.5 kcal/mol
∆H (human DNPH1 [4]): -20.1 ± 0.1 kcal/mol
∆S (human DNPH1 [4]): -42.4 cal.K^-1.mol^-1

SMILES: CC(C)=CCNc1ncnc2c1ncn2[C@@H]1O[C@H](COP(=O)(O)O)[C@@H](O)[C@H]1O [Compound 1, N ^6-Isopentenyl adenosine 5’-monophosphate]
Ki (human DNPH1 [1]): 2000 nM
Kd (rat DNPH1 [2]): 2600 ± 100 nM
-T∆S (rat DNPH1 [2]): 8.3 kcal/mol
∆G (rat DNPH1 [2]): -7.6 kcal/mol
∆H (rat DNPH1 [2]): -15.9 ± 0.1 kcal/mol
∆S (rat DNPH1 [2]): -27.9 cal.K^1.mol^-1
Ki (rat DNPH1 [3]): 3300 nM
Kd (human DNPH1 [4]): 2100 ± 200 nM
-T∆S (human DNPH1 [4]): 2.4 kcal/mol
∆G (human DNPH1 [4]): -7.8 kcal/mol
∆H (human DNPH1 [4]): -10.2 ± 0.1 kcal/mol
∆S (human DNPH1 [4]): -8.2 cal.K^-1.mol^-1

SMILES: O=P(O)(O)OC[C@H]1O[C@@H](n2cnc3c(NC4CCCCC4)ncnc32)[C@H](O)[C@@H]1O [Compound 8, N ^6-Cyclohexyladenosine 5'-monophosphate]
Ki (human DNPH1 [1]): 1600 ± 300 nM
Kd (rat DNPH1 [2]): 500 ± 100 nM
-T∆S (rat DNPH1 [2]): 11.2 kcal/mol
∆G (rat DNPH1 [2]): -8.7 kcal/mol
∆H (rat DNPH1 [2]): -19.9 ± 0.1 kcal/mol
∆S (rat DNPH1 [2]): -37.6 cal.K^1.mol^-1
Ki (rat DNPH1 [3]): 1200 ± 100 nM

SMILES: CC(CO)CCNc1ncnc2c1ncn2[C@@H]1O[C@H](COP(=O)(O)O)[C@@H](O)[C@H]1O (stereo partly shown) [Compound 4, dihydrozeatin riboside 5’-monophosphate]
Ki (human DNPH1 [1]): 3900 ± 1000 nM
Ki (rat DNPH1 [3]): 7600 ± 1500 nM

SMILES: C/C(=C/CNc1ncnc2c1ncn2[C@@H]1O[C@H](COP(=O)(O)O)[C@@H](O)[C@H]1O)CO [Compound 3, cis-zeatin riboside 5’-monophosphate]
Ki (human DNPH1 [1]): 5600 ± 800 nM
Ki (rat DNPH1 [3]): 6100 ± 1200 nM

SMILES: O=P(O)(O)OC[C@H]1O[C@@H](n2cnc3c(NC4CCCC4)ncnc32)[C@H](O)[C@@H]1O [Compound 7, N ^6-cyclopentyladenosine 5’-monophosphate]
Ki (human DNPH1 [1]): 2600 ± 300 nM
Kd (rat DNPH1 [2]): 600 ± 100 nM
-T∆S (rat DNPH1 [2]): 2.3 kcal/mol
∆G (rat DNPH1 [2]): -8.5 kcal/mol
∆H (rat DNPH1 [2]): -10.7 ± 0.1 kcal/mol
∆S (rat DNPH1 [2]): -7.5 cal.K^1.mol^-1
Ki (rat DNPH1 [3]): 1200 ± 100 nM
Kd (human DNPH1 [4]): 1400 ± 400 nM
-T∆S (human DNPH1 [4]): -1.8 kcal/mol
∆G (human DNPH1 [4]): -8.0 kcal/mol
∆H (human DNPH1 [4]): -6.1 ± 0.1 kcal/mol
∆S (human DNPH1 [4]): 6.2 cal.K^-1.mol^-1

SMILES: O=P(O)(O)OC[C@H]1O[C@@H](n2cnc3c(NC4CC4)ncnc32)[C@H](O)[C@@H]1O [Compound 10, N ^6-Cyclopropyladenosine 5'-monophosphate]
Ki (human DNPH1 [1]): 2800 ± 600 nM
Ki (rat DNPH1 [3]): 2000 ± 600 nM

SMILES: C/C(=C\CNc1ncnc2c1ncn2[C@@H]1O[C@H](COP(=O)(O)O)[C@@H](O)[C@H]1O)CO [Compound 2, trans-zeatin riboside 5’-monophosphate]
Ki (human DNPH1 [1]): 8000 ± 1400 nM
Ki (rat DNPH1 [3]): 15500 ± 1000 nM
decrease in activity compared to 1 (rat DNPH1 [3]; hydroxyl group on the C4 chain): up to 5 fold

SMILES: O=P(O)(O)OC[C@H]1O[C@@H](n2cnc3c(NC4CCC4)ncnc32)[C@H](O)[C@@H]1O [Compound 9, N ^6-Cyclobutyladenosine 5'-monophosphate]
Ki (human DNPH1 [1]): 1500 ± 100 nM
Ki (rat DNPH1 [3]): 1300 ± 100 nM

SMILES: Nc1nc2c(ncn2[C@@H]2O[C@H](COP(=O)(O)O)[C@@H](O)[C@H]2O)c(=O)[nH]1 [GMP]
free energy (rat DNPH1 [6]): -6.8 kcal/mol
